Results taken from patent publication EP2179735A1 (WORLD-TRADE IMPORT-EXPORT, WTIE, A.G., priority 2007, dated 2009).

Tests used:
[1] = cited from earlier work
[2] = cited from earlier work; remark: listed apart in the source
[3] = system: convulsions induced (MES); experiment: MES test (convulsions produced by electroshocks) in mice, drugs alone and in combination, isobolographic analysis; assay type: in vivo
Experimental: MES test in rodents is broadly accepted as an experimental model of tonic-clonic convulsions or certain partial convulsions with or without secondary generalization. Brain concentrations were also assessed with anti-epilepsy compounds to monitor whether effects result in a pharmacodynamic and/or pharmacokinetic interaction.
Tests were carried out in Swiss, male, adult, albine mice with a weight between 22-26 gr.
Firstly, separately administered medicament effects were studied.

[4] = in vivo; cited from earlier work
[5] = CZP 20 mg/kg peritoneally, 30 minutes before MES test
[6] = CZP 25 mg/kg peritoneally, 30 minutes before MES test
[7] = CZP 30 mg/kg peritoneally, 30 minutes before MES test
[8] = CZP 35 mg/kg peritoneally, 30 minutes before MES test
[9] = CZP 40 mg/kg peritoneally, 30 minutes before MES test
[10] = LTG 3 mg/kg peritoneally, 60 minutes before MES test
[11] = LTG 4 mg/kg peritoneally, 60 minutes before MES test
[12] = LTG 5 mg/kg peritoneally, 60 minutes before MES test
[13] = LTG 6 mg/kg peritoneally, 60 minutes before MES test
[14] = LTG 8 mg/kg peritoneally, 60 minutes before MES test

Q: With `O=C1CN=C(c2ccccc2Cl)c2cc([N+](=O)[O-])ccc2N1` [CZP, Clonazepam] as the molecule, how does the “attachment to plasma proteins” value [1] read?
A: 85%

Q: What about the bioavailability ([2]; orally administered) of the same molecule?
A: 90%

Q: What about the “recovered in urine in unaltered form” value ([2]; urine, po) of the same molecule?
A: Less than 0.5%

Q: What about the “% (Percentage of protection against MES test)” value [3, 5] of the same molecule?
A: 12.5%

Q: And the “P/T (Number of protected animals against electroconvulsion / Total number of animals challenged with MES test)” value [3, 5]?
A: 1/8

Q: What about the “% (Percentage of protection against MES test)” value [3, 6] of the same molecule?
A: 25%

Q: And the “P/T (Number of protected animals against electroconvulsion / Total number of animals challenged with MES test)” value [3, 6]?
A: 2/8

Q: What about the “% (Percentage of protection against MES test)” value [3, 7] of the same molecule?
A: 50%

Q: And the “P/T (Number of protected animals against electroconvulsion / Total number of animals challenged with MES test)” value [3, 7]?
A: 4/8

Q: And the “% (Percentage of protection against MES test)” value [3, 8]?
A: 75%

Q: And the “P/T (Number of protected animals against electroconvulsion / Total number of animals challenged with MES test)” value [3, 8]?
A: 6/8

Q: And the “% (Percentage of protection against MES test)” value [3, 9]?
A: 100%

Q: And the “P/T (Number of protected animals against electroconvulsion / Total number of animals challenged with MES test)” value [3, 9]?
A: 8/8

Q: For `Nc1nnc(-c2cccc(Cl)c2Cl)c(N)n1` [LTG, Lamotrigine], which “adverse event: asthenia” value [4] is on record?
A: 10%

Q: And the “adverse event: ataxia” value [4]?
A: 11%

Q: And the “adverse event: diplopy” value [4]?
A: 14%

Q: And the “adverse event: generalized allergic rash” value [4]?
A: 2-3%

Q: What about the “adverse event: headache” value [4] of the same molecule?
A: 12%

Q: And the “adverse event: skin rash” value [4]?
A: 3%

Q: What about the “adverse event: somnolence” value [4] of the same molecule?
A: 13%

Q: And the “adverse event: vertigo” value [4]?
A: 14%

Q: And the “attachment to plasma proteins” value [1]?
A: about 55%

Q: And the “removed without changes by feces” value ([2]; feces)?
A: 2%

Q: And the drug unalteredly removed ([2]; in vivo)?
A: 10%

Q: What about the “% (Percentage of protection against MES test)” value [3, 10] of the same molecule?
A: 0%

Q: What about the “P/T (Number of protected animals against electroconvulsion / Total number of animals challenged with MES test)” value [3, 10] of the same molecule?
A: 0/8

Q: What about the “% (Percentage of protection against MES test)” value [3, 11] of the same molecule?
A: 25%

Q: And the “P/T (Number of protected animals against electroconvulsion / Total number of animals challenged with MES test)” value [3, 11]?
A: 2/8

Q: And the “% (Percentage of protection against MES test)” value [3, 12]?
A: 50%

Q: What about the “P/T (Number of protected animals against electroconvulsion / Total number of animals challenged with MES test)” value [3, 12] of the same molecule?
A: 4/8

Q: And the “% (Percentage of protection against MES test)” value [3, 13]?
A: 75%

Q: What about the “P/T (Number of protected animals against electroconvulsion / Total number of animals challenged with MES test)” value [3, 13] of the same molecule?
A: 6/8

Q: What about the “% (Percentage of protection against MES test)” value [3, 14] of the same molecule?
A: 100%

Q: And the “P/T (Number of protected animals against electroconvulsion / Total number of animals challenged with MES test)” value [3, 14]?
A: 8/8
